Test results: ChEMBL document CHEMBL3351974, “Development of constrained tamoxifen mimics and their antiproliferative properties against breast cancer cells” (Bioorg Med Chem Lett, 2015)
Structures can show the parent of a compound that is named as a salt.

Experiments:
[1] = Antiproliferative activity against human MEpiC cells after 48 hrs by MTT assay; type: cell-based
[2] = tested on: MCF7; experiment: Antiproliferative activity against human MCF7 cells after 48 hrs by MTT assay; type: functional, cell-based; settings: MCF7, 48 h
[3] = tested on: MDA-MB-231; experiment: Antiproliferative activity against human MDA-MB-231 cells after 48 hrs by MTT assay; type: functional, cell-based; settings: MDA-MB-231, 48 h

SMILES	IC50 [1] [µM]	IC50 [2] [µM]	IC50 [3] [µM]
COc1ccc(OC(=O)C#Cc2ccccc2)cc1	19.1	52.6	6.66
O=C1C=CC2(C=C1)OC(=O)C(I)=C2c1ccccc1	6.33	41.5	7.51
O=C1C=CC2(C=C1)OC(=O)C(c1cc3ccccc3s1)=C2c1ccccc1	10.8	5.9	32.9
O=C1C=CC2(C=C1)OC(=O)C(c1ccc(F)cc1)=C2c1ccccc1	11.1	6.32	38.6
O=C1C=CC2(C=C1)OC(=O)C(c1cc3ccccc3o1)=C2c1ccccc1	66.5	5.8	21.2
O=C1C=CC2(C=C1)OC(=O)C(c1ccc(O)cc1)=C2c1ccccc1	16.8	6	61
O=C1C=CC2(C=C1)OC(=O)C(c1ccc([N+](=O)[O-])cc1)=C2c1ccccc1	66.5	5.99	19
COc1ccc(C2=C(c3ccccc3)C3(C=CC(=O)C=C3)OC2=O)cc1	11.7	5.86	64
O=C1C=CC2(C=C1)OC(=O)C(c1ccc(CO)cc1)=C2c1ccccc1	3.86	5.76	8.85
COc1cc(C2=C(c3ccccc3)C3(C=CC(=O)C=C3)OC2=O)cc(OC)c1OC	6.61	5.79	9.73
COc1ccc(F)cc1C1=C(c2ccccc2)C2(C=CC(=O)C=C2)OC1=O	13.5	5.73	10
COc1c(Br)cc(C)cc1C1=C(c2ccccc2)C2(C=CC(=O)C=C2)OC1=O	14.7	5.85	9.45
O=C1C=CC2(C=C1)OC(=O)C(c1ccc3c(c1)OCO3)=C2c1ccccc1	34.2	5.81	9.12
N#Cc1ccc(C2=C(c3ccccc3)C3(C=CC(=O)C=C3)OC2=O)cc1	8.89	19	8.74
O=C1C=CC2(C=C1)OC(=O)C(c1ccc(C(=O)O)cc1)=C2c1ccccc1	10.4	5.95	15.2
O=Cc1ccc(C2=C(c3ccccc3)C3(C=CC(=O)C=C3)OC2=O)s1	7.08	6.23	19.8
O=C1C=CC2(C=C1)OC(=O)C=C2c1ccccc1	7.67	6.46	15.9
COc1cccc2c1C(=O)c1c(O)c3c(c(O)c1C2=O)C[C@@](O)(C(=O)CO)C[C@@H]3O[C@H]1C[C@H](N)[C@H](O)[C@H](C)O1 [DOXORUBICIN HYDROCHLORIDE]			4.06
